These results are taken from patent publication EP0037224A1, “Rare earth metal carboxylates, their use as antimicrobial agents, and medicinal, cosmetic and cleansing compositions containing them” (THE PROCTER & GAMBLE COMPANY, priority 1980, dated 1981).

In assay [1] the test system is E. coli. Description: Minimum Bactericidal Concentration test. It is filed as cell-based. Particulars: 10-minute contact with the test agent at 37°C; at least a 3 log unit reduction in viable cell count.
Assay [2] concerns S. aureus. Nature of the assay: Minimum Bactericidal Concentration test. Particulars: 10-minute contact with the test agent at 37°C; at least a 3 log unit reduction in viable cell count. It is filed as cell-based.
Assay [3] relates to molds. Particulars: cited from earlier work.
Assay [4] relates to Staphylococcus. Particulars: cited from earlier work.

Some results are limits rather than exact numbers.

Consider `O.O.O.O.O.O.O.O.O=S(=O)([O-])[O-].O=S(=O)([O-])[O-].O=S(=O)([O-])[O-].[La+3].[La+3]` [La2(SO4)3.8H2O], for which the “Minimum Bactericidal Concentration E. coli” value in assay [1] is >7100 ppm. The “Minimum Bactericidal Concentration S. aureus” value in assay [2] is >7100 ppm.
On to `O.O.O.O.O.O.O=[N+]([O-])[O-].O=[N+]([O-])[O-].O=[N+]([O-])[O-].[La+3]` [La(NO3)3.6H2O], for which, in assay [1], the “Minimum Bactericidal Concentration E. coli” value is on record as >4300 ppm. Moreover, the “Minimum Bactericidal Concentration S. aureus” value in assay [2] is listed as >4300 ppm.
As for `O.O.O.O.O.O.[Cl-].[Cl-].[Cl-].[La+3]` [LaCl3.6H2O], the “Minimum Bactericidal Concentration E. coli” value in assay [1] was >3500 ppm. For the same compound, in assay [2], the “Minimum Bactericidal Concentration S. aureus” value is given as >3500 ppm.
`O=[N+]([O-])[O-].O=[N+]([O-])[O-].O=[N+]([O-])[O-].[Ce+3]` [cerium nitrate]: the “concentration that inhibits molds” value in assay [3] is reported as 1000 ppm. Moreover, the “concentration that inhibits Staphylococcus” value in assay [4] is reported as 1000 ppm.
